Reference: patent publication US20250213448A1, “COMPOSITION FOR PROTECTING SKIN CONTAINING A THYMOL ESTER-BASED COMPOUND” (Amorepacific Corporation, priority 2024, published 2025)

Test system: Normal human epidermal melanocytes
Experiment: Damage inhibition experiment using normal human melanocytes (UVB photoaging, real-time PCR gene expression)
Format: cell-based
Protocol: Melanocytes isolated from normal human skin (Normal human epidermal melanocytes) were treated with ultraviolet B (312 nm) at 20 mJ each, once a day, for two days, and cultured for one month. Melasolv was dissolved in DMSO at 1000×, irradiated with ultraviolet rays, and then immediately placed in a culture medium at 1 and 5 ppm and treated. The cells were grown in a 37° C., 5% CO2 incubator while changing the culture medium containing the experimental material every two days. After the experiment was completed, the cells were dissolved in TRIzol and collected, and total RNA was isolated. Then, cDNA was synthesized therefrom and real-time PCR was performed to compare the relative expression levels of each gene. The RNA was quantified and the same amount of RNA was added to each experimental group, and the expression of each gene was corrected by the expression of GAPDH, a house-keeping gene, to compare the relative expression levels.
The gene primers used were purchased from APPLIED BIOSYSTEMS as follows: […]

COc1cc(/C=C/C(=O)Oc2cc(C)ccc2C(C)C)cc(OC)c1OC [Melasolv, (5-methyl-2-propan-2-ylphenyl) (E)-3-(3,4,5-trimethoxyphenyl) prop-2-enoate]
expression of the XPA gene (UVB-photoaged melanocytes, 5 ppm of Melasolv, compared with control group, FIG. 4): increased even higher than that of the control group
expression of aging genes (p16, p21) (melanocytes irradiated with UVB (312 nm, 20 mJ, once a day for two days), cultured one month, Melasolv at 1 and 5 ppm, real-time PCR corrected by GAPDH, FIGS. 1 and 2): inhibited in a concentration-dependent manner
expression of DNA repair genes (APEX1, XPA, RPA1) that had decreased due to photoaging (melanocytes irradiated with UVB (312 nm, 20 mJ, once a day for two days), cultured one month, Melasolv at 1 and 5 ppm, real-time PCR corrected by GAPDH, FIGS. 3 to 5): increased
